15 compounds from US20240051985A1, “METTL3 MODULATORS” (ACCENT THERAPEUTICS, INC., priority 2020, published 2024) can be followed below.

One experiment deals with METTL3/METTL14 (Homo sapiens, UniProt Q86U44). Kind of experiment: METTL3-14 standard enzyme assay (3H-SAM flashplate). The conditions noted are these: METTL3 biochemical assay. In short, it runs like this: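 METTL3/METTL14 (2.5 nM) preincubated 5 min, then reacted with 3′-biotinylated RNA UCUGGACUAAA (100 nM) and 3H-SAM (100 nM) for 30 min at ambient temperature in 20 mM HEPES pH 7.5, 50 mM KCl, 250 μM MgCl2, 1 mM DTT. Quenched with 15 μM cold SAM; product captured on streptavidin flashplates, scintillation counted.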

Another experiment concerns the target PRMT5-MEP50 (Homo sapiens, UniProt O14744). Put plainly: PRMT5 assay (3H-SAM flashplate). The conditions noted are these: PRMT5 biochemical assay. Put shortly: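 PRMT5-MEP50 at 2.5 nM, preincubated 5 min with compound in 20 mM Tris-HCl pH 8.0, 1 mM DTT, 0.01% Tween at ambient temperature. Biotinylated acetylated histone H4 peptide (100 nM) and 3H-SAM (250 nM) react 60 min, quenched with 15 μM cold SAM; methylation captured on streptavidin flashplates and scintillation-counted.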

The target in a further experiment is T1, FLT3 (Homo sapiens, UniProt P36888).
T1 sequence (P36888 27-993): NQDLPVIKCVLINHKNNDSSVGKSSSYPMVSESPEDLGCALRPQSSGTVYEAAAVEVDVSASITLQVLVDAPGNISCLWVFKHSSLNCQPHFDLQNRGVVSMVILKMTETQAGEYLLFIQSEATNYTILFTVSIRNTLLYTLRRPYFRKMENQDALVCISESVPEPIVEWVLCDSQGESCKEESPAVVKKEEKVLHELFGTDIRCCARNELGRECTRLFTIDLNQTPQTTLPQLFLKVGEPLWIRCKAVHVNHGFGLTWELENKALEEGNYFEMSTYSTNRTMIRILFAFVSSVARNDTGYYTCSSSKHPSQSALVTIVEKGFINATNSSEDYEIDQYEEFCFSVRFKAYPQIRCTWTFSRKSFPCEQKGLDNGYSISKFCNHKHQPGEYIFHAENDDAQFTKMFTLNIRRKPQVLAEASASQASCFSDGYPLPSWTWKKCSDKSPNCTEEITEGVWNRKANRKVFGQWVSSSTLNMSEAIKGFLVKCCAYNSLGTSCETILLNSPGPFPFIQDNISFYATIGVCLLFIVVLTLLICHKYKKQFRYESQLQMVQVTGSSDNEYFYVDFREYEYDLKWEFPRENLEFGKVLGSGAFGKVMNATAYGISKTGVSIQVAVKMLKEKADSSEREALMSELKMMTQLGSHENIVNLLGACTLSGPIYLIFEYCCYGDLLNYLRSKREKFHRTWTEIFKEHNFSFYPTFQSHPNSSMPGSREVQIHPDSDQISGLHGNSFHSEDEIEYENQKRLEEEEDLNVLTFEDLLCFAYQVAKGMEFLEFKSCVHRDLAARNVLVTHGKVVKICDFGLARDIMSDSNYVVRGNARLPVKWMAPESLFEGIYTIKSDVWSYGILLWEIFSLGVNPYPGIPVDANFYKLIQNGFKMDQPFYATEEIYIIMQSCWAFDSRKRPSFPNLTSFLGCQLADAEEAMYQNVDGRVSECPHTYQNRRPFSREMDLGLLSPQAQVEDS
Put plainly: FLT3 LanthaScreen assay. Format: biochemical. The conditions noted are these: Table 4. On the procedure:
(§1) FLT3/FLT3-ITD LanthaScreen Assays
(§2) Assays were performed in a 10 μl-volume in 384-well polypropylene microplates (Perkin Elmer Proxiplate, cat. No. 6059480) at ambient temperature. Optimized 1× assay buffer was 50 mM Hepes pH 7.5, 2 mM DTT, 0.01% Tween, 0.01% BSA, 10 mM MgCl2. For compound screening FLT3 (final concentration, f.c.=[…]) or FLT3-ITD (f.c.=[…]) was added using a Multidrop Combi (ThermoFisher Scientific, Waltham, MA) and preincubated for 10 min. Reactions were started by adding fluorescein-poly GT (f.c.=200 nM) and ATP (f.c.=57 μM) substrates. Reactions proceeded for 40 minutes. The reactions were stopped with a detection mixture of EDTA (f.c.=20 mM) and terbium-conjugated anti-phoso tyrosine antibody pY20 (f.c.=2 nM). The plates were sealed and read on an Envision (PerkinElmer, Waltham, MA) using 340 nm excitation and emission reads at 495 and 520 nM.

The next experiment concerns the target T2, FLT3-ITD (Homo sapiens, UniProt P36888).
T2 sequence (P36888 1-993): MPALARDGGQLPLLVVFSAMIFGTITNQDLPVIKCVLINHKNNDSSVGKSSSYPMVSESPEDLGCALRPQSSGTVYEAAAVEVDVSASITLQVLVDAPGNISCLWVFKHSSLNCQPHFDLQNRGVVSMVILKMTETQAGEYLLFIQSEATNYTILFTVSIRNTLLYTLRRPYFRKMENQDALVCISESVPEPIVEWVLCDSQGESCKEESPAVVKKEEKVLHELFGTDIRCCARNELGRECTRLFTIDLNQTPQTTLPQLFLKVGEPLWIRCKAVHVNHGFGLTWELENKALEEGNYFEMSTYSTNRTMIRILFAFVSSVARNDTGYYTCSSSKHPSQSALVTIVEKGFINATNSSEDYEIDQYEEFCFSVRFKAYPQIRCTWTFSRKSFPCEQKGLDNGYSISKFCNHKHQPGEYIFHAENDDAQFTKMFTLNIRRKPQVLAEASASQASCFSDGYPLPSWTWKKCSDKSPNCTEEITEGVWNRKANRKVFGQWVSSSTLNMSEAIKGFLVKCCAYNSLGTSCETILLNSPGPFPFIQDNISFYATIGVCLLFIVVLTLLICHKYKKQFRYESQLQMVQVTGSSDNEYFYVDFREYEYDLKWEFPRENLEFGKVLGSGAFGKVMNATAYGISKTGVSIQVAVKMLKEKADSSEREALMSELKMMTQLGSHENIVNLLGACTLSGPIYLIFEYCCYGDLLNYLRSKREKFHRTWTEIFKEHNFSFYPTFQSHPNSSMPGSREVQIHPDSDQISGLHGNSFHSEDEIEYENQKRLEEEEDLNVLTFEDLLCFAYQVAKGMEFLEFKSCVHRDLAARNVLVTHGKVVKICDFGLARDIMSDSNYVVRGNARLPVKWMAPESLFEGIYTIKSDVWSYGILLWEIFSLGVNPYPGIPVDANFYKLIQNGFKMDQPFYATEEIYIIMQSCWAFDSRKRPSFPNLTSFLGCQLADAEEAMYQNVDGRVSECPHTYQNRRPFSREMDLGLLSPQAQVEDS
Put plainly: FLT3-ITD LanthaScreen assay. Format: biochemical. The conditions noted are these: Table 4. As for the experimental part:
as §1, §2

Chain of PRMT5-MEP50 (O14744 whole entry): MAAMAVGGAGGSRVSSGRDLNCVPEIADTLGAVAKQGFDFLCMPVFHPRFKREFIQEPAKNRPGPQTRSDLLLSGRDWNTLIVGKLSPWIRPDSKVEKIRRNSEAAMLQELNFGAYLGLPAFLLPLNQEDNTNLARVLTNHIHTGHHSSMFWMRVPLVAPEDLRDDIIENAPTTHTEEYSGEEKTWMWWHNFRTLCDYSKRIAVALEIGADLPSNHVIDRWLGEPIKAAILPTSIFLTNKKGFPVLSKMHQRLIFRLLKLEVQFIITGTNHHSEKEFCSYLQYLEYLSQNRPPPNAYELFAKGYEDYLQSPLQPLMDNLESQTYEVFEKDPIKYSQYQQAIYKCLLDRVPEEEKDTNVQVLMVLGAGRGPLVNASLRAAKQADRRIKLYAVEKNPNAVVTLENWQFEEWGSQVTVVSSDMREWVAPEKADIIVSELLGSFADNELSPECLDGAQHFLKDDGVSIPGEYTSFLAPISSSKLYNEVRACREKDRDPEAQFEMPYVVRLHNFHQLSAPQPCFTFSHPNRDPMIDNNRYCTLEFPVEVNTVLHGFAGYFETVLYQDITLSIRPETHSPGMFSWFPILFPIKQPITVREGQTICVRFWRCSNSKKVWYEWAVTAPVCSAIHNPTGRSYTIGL
Chain of PRMT5-MEP50 (Q9BQA1 whole entry partner): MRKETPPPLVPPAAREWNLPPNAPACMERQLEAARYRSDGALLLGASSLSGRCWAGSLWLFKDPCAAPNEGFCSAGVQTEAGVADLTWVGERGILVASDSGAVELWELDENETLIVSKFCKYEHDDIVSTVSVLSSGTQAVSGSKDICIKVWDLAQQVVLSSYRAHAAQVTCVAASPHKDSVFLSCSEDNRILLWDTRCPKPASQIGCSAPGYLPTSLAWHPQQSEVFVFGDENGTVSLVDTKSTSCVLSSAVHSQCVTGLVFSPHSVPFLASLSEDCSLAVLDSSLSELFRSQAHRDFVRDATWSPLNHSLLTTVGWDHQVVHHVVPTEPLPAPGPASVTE
Chain of METTL3/METTL14 (Q86U44 whole entry, species assumed): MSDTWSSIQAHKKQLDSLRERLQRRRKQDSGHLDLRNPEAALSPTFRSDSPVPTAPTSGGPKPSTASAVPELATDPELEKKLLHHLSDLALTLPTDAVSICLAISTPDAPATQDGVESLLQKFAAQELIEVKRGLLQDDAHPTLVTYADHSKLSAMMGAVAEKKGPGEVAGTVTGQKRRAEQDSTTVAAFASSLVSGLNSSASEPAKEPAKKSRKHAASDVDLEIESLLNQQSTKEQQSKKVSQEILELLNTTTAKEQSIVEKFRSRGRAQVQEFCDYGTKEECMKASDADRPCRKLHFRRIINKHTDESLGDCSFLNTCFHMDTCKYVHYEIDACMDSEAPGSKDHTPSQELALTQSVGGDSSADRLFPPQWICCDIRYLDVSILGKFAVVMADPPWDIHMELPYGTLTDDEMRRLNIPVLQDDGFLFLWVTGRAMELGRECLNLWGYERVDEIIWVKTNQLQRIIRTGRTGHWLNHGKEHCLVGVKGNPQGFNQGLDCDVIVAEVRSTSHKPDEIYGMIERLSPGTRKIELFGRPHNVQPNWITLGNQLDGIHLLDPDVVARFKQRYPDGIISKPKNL
Chain of METTL3/METTL14 (Q9HCE5 whole entry partner, species assumed): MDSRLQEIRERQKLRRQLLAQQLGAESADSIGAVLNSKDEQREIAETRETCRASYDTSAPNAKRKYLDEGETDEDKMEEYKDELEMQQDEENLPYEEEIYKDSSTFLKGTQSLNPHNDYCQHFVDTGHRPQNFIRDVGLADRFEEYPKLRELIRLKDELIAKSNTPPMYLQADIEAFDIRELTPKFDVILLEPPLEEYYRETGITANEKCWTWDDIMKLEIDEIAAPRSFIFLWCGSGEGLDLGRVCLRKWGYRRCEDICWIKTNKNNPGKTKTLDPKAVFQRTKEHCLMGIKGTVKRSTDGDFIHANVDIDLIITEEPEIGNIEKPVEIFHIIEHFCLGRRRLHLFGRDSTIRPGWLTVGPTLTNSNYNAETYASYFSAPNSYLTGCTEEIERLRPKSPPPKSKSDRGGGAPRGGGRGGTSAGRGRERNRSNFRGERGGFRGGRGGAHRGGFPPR

Turning to `CNc1ccc2ccc(NC(=O)[C@H]3O[C@@H](n4cc(-c5ccn(C)n5)c5c(N)ncnc54)[C@@H](F)[C@@H]3O)cc2n1` [Compound I-61], the IC50 is < 0.01 µM on METTL3/METTL14 (Table 4), 0.01 to 0.1 µM against PRMT5-MEP50 (Table 4), 0.1 to 1 µM against FLT3 and 0.1 to 1 µM against FLT3-ITD.
As for `CC1CC(NC(=O)[C@H]2O[C@@H](n3cc(-c4ccn(C)n4)c4c(N)ncnc43)[C@H](O)[C@@H]2O)CCN1C` (stereo in doubt) [Compound I-231], the half-inhibitory concentration (IC50) against METTL3/METTL14 (Table 4) is 0.1 to 1 µM; at PRMT5-MEP50 (Table 4), 0.1 to 1 µM; against FLT3, ≥ 1 µM; against FLT3-ITD, ≥ 1 µM.
For `CN1CC[C@H](NC(=O)[C@H]2O[C@@H](n3cc(-c4ccn(C)n4)c4c(N)ncnc43)[C@H](O)[C@@H]2O)C1` [Compound I-203], the IC50 against METTL3/METTL14 (Table 4) is 0.1 to 1 µM; on PRMT5-MEP50 (Table 4), 0.01 to 0.1 µM; against FLT3 it was ≥ 1 µM; at FLT3-ITD, ≥ 1 µM.
On to `C[C@H]1C[C@H](NC(=O)[C@H]2O[C@@H](n3cc(-c4ccn(C)n4)c4c(N)ncnc43)[C@H](O)[C@@H]2O)CCN1C` [Compound I-234], for which the 50% inhibitory concentration (IC50) on METTL3/METTL14 (Table 4) was 0.1 to 1 µM; on PRMT5-MEP50 (Table 4), 0.1 to 1 µM; at FLT3, ≥ 1 µM; at FLT3-ITD, ≥ 1 µM.
For the compound `Cn1ccc(-c2cn([C@@H]3O[C@H](C(=O)N4CCC[C@@H](C(N)=O)C4)[C@@H](O)[C@H]3O)c3ncnc(N)c23)n1` [Compound I-174], the IC50 at METTL3/METTL14 (Table 4), on PRMT5-MEP50 (Table 4), at FLT3 and on FLT3-ITD was ≥ 1 µM throughout.
As to `C[C@H](NC(=O)[C@H]1O[C@@H](n2cc(-c3ccn(C)n3)c3c(N)ncnc32)[C@H](O)[C@@H]1O)C1CCNCC1` [Compound I-195], the IC50 was 0.1 to 1 µM at METTL3/METTL14 (Table 4), 0.1 to 1 µM on PRMT5-MEP50 (Table 4), ≥ 1 µM on FLT3 and ≥ 1 µM on FLT3-ITD.
With `Cn1ccc(-c2cn([C@@H]3O[C@H](C(=O)N4CCC[C@@H](NS(C)(=O)=O)C4)[C@@H](O)[C@H]3O)c3ncnc(N)c23)n1` [Compound I-151], the IC50 against METTL3/METTL14 (Table 4), against PRMT5-MEP50 (Table 4), on FLT3 and against FLT3-ITD was ≥ 1 µM throughout.
Turning to `Cn1ccc(-c2cn([C@@H]3O[C@H](C(=O)NC[C@H]4CC[C@H](O)CC4)[C@@H](O)[C@H]3O)c3ncnc(N)c23)n1` [Compound I-159], the IC50 against METTL3/METTL14 (Table 4), against PRMT5-MEP50 (Table 4), on FLT3 and on FLT3-ITD was ≥ 1 µM throughout.
In the case of `CN1CCC(N(CC[C@H](N)C(=O)O)C(=O)[C@H]2O[C@@H](n3cc(-c4ccn(C)n4)c4c(N)ncnc43)[C@H](O)[C@@H]2O)CC1` [Compound I-31, (S)-2-amino-4-((2S,3S,4R,5R)-5-(4-amino-5-(1-methyl-1H-pyrazol-3-yl)-7H-pyrrolo[2,3-d]pyrimidin-7-yl)-3,4-dihydroxy-N-(1-methylpiperidin-4-yl)tetrahydrofuran-2-carboxamido)butanoic acid], the IC50 against METTL3/METTL14 (Table 3) was < 0.01 µM; at PRMT5-MEP50 (Table 3), < 0.01 µM; on FLT3, ≥ 1 µM; on FLT3-ITD, ≥ 1 µM.
In the case of `COC(=O)[C@@H](N)CCNC(=O)[C@H]1O[C@@H](n2cc(-c3ccn(C)n3)c3c(N)ncnc32)[C@H](O)[C@@H]1O` [Compound I-42, methyl (2S)-2-amino-4-{[(2S,3S,4R,5R)-5-[4-amino-5-(1-methyl-1H-pyrazol-3-yl)-7H-pyrrolo[2,3-d]pyrimidin-7-yl]-3,4-dihydroxyoxolan-2-yl]formamido}butanoate], the IC50 on METTL3/METTL14 (Table 4) was ≥ 1 µM; against PRMT5-MEP50 (Table 4) it was 0.1 to 1 µM; against FLT3 it was ≥ 1 µM; against FLT3-ITD, ≥ 1 µM.
For `Cn1ccc(-c2cn([C@@H]3O[C@H](C(=O)NCC[C@H](N)C(=O)O)[C@@H](O)[C@H]3O)c3ncnc(N)c23)n1` [Compound I-43], the 50% inhibitory concentration (IC50) at METTL3/METTL14 (Table 4) is 0.1 to 1 µM; at PRMT5-MEP50 (Table 4), ≥ 1 µM; at FLT3, ≥ 1 µM; at FLT3-ITD, ≥ 1 µM.
Regarding `CN1CCC[C@@H](NC(=O)[C@H]2O[C@@H](n3cc(-c4ccn(C)n4)c4c(N)ncnc43)[C@H](O)[C@@H]2O)C1` [Compound I-46, (2S,3S,4R,5R)-5-[4-amino-5-(1-methyl-1H-pyrazol-3-yl)-7H-pyrrolo[2,3-d]pyrimidin-7-yl]-3,4-dihydroxy-N-[(3R)-1-methylpiperidin-3-yl]oxolane-2-carboxamide], the 50% inhibitory concentration (IC50) at METTL3/METTL14 (Table 4) was ≥ 1 µM; on PRMT5-MEP50 (Table 4), 0.01 to 0.1 µM; against FLT3, ≥ 1 µM; at FLT3-ITD it was ≥ 1 µM.
Turning to `CN1CCC(N(CCCN)C(=O)[C@H]2O[C@@H](n3cc(-c4ccn(C)n4)c4c(N)ncnc43)[C@H](O)[C@@H]2O)CC1` [Compound I-146], the IC50 was 0.01 to 0.1 µM on METTL3/METTL14 (Table 4), 0.01 to 0.1 µM on PRMT5-MEP50 (Table 4), ≥ 1 µM against FLT3 and ≥ 1 µM at FLT3-ITD.
For `CNc1ccc2ccc(NC(=O)[C@H]3O[C@@H](n4cc(-c5ccn(C)n5)c5c(N)ncnc54)C[C@@H]3O)cc2n1` [Compound I-35], the 50% inhibitory concentration (IC50) is < 0.01 µM at METTL3/METTL14 (Table 4), 0.01 to 0.1 µM at PRMT5-MEP50 (Table 4), ≥ 1 µM at FLT3 and ≥ 1 µM against FLT3-ITD.
As for `C[C@@H]1C[C@@H](NC(=O)[C@H]2O[C@@H](n3cc(-c4ccn(C)n4)c4c(N)ncnc43)[C@H](O)[C@@H]2O)CCN1C` [Compound I-233], the IC50 is 0.1 to 1 µM against METTL3/METTL14 (Table 4), 0.1 to 1 µM against PRMT5-MEP50 (Table 4), ≥ 1 µM on FLT3 and ≥ 1 µM at FLT3-ITD.
